Reference: patent EP0768085A1, “ANTIBACTERIAL AGENT” (DAIICHI PHARMACEUTICAL CO., LTD., priority 1994, dated 1996)
Values after ≈ are worked out from the molar mass of the structure shown.

Legend:
Type in all cases: cell-based
[1] = test system: Bordetella bronchiseptica (SM2-4); assay: Antibacterial activity (IC), broth microplate as in Example 4 (Example 7, Table 42); conditions: for MIC: 18 h
Method: (§1) A suitable amount of a sample was dissolved in dimethylsulfoxide (DMSO), and the resultant solution was diluted with the same amount of sterilized distilled water to prepare a bulk sample of 1,000 µg/ml. Mueller-Hinton broth (product of DIFCO) was dispensed into each well of 96-well microplate. Thereafter, the bulk specimen was added to the first well of a row, and successively diluted (10-fold each time) with sterilized distilled water. Separately, a bacterial cell suspension for the test (Staphylococcus aureus 209-P) which had been cultured in the above-mentioned broth overnight at 37°C was inoculated to each well so that the final inoculation amount of 10^6 CFU/ml was attained. The final concentrations of the samples were 100, 10, and 1 µg/ml.
(§2) The antibacterial action was evaluated by the inhibitory concentration (hereinafter abbreviated as IC) at which propagation of the bacteria cultured at 37°C for 18 hours was inhibited. Inhibition was determined by the turbidity of the medium. The expressions "IC≤100", "≤10", and "≤1" indicate that MIC-equivalent values obtained at the succesive […] dilution of the sample are 100-10 µg/ml, 10-1 µg/ml, and not more than 1 µg/ml, respectively. […] (In the subsequent Examples, the same rule applies correspondingly.) Table 39
In a manner similar to that described in Example 4, antibacterial activity of the invention compound was determined. The bacterium used for the test was Bordetella bronchiseptica (SM2-4).

[2] = test system: methicillin-resistant Staphylococcus aureus (MRSA) isolated from humans; assay: Antibacterial activity (IC), Mueller-Hinton agar containing the sample (Example 8, Table 43); conditions: for IC: 18 hours; for MIC: Staphylococcus aureus, MRSA, 18 h
Method: as §2
(§3) A suitable amount of a sample was dissolved in dimethylsulfoxide (DMSO), after which the resulting solution was diluted with the same amount of sterilized distilled water to prepare a bulk sample of 1,000 µg/ml. Separately, a bacterial liquid for the test (methicillin-resistant Staphylococcus aureus (MRSA) isolated from humans) which had been cultured in Mueller-Hinton broth (product of DIFCO) was prepared and inoculated to a Mueller-Hinton agar (product of DIFCO) containing the sample so that the final inoculation amount of 10^6 CFU/ml was achieved. The final concentrations of the samples were 100, 10, and 1 µg/ml.
(§4) After culturing at 37°C for 18 hours, the antibacterial activity was evaluated in terms of IC in a manner similar to that described in Example 4.

[3] = test system: Pasteurella multocida (Kobe-6); assay: Antibacterial activity (IC), broth microplate as in Example 4 (Example 6, Table 41); conditions: origin pig; for MIC: 18 h
Method: as §1, §2
In a manner similar to that described in Example 4, antibacterial activity of the invention compound was determined. The bacterium used for the test was Pasteurella Kobe-6 (origin: pig; Pasteurella multocida).

Enterococcus from fish = assay: Antibacterial activity (IC), agar as in Example 8, media with 1.5% NaCl, 25°C (Example 20, Tables 53-55)
How it was run: (§5)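 Growth inhibition was scored by turbidity after culture at 25°C, with IC bands set from 2-fold-dilution MIC-equivalents. Samples were tested at final 100, 10 and 1 µg/ml in Mueller-Hinton agar with 1.5% NaCl, seeded with 10^6 CFU/ml of the fish isolates.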

Pasteurella from fish = assay: as above
How it was run: as §5

[4] = test system: Staphylococcus aureus 209-P; assay: Antibacterial activity (IC), Mueller-Hinton broth, 96-well microplate (Example 4, Table 39); conditions: 37°C, 18 hours
Method: as §1, §2

[5] = test system: Staphylococcus aureus TI-1; assay: Antibacterial activity (IC), broth microplate as in Example 4 (Example 5, Table 40); conditions: for MIC: TI1, 18 h
Method: as §1, §2
In a manner similar to that described in Example 4, antibacterial activity of the invention compound was determined. The bacterium used for the test was Staphylococcus aureus TI-1.

[6] = test system: Pasteurella multocida (Kobe-6); assay: Antibacterial activity (IC), agar as in Example 8 (Example 17, Table 50); conditions: 18 h, origin pig
How it was run: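 Agar dilution on Mueller-Hinton agar with compound at 100, 10 and 1 µg/ml, inoculated at 10^6 CFU/ml with pig-origin strain Kobe-6. After 18 h at 37 °C, IC scored from turbidity and reported as a band (≤100, ≤10, ≤1 µg/ml).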

[7] = test system: methicillin-resistant Staphylococcus aureus (MRSA) from humans; assay: Antibacterial activity (IC), agar as in Example 8 (Example 19, Table 52); conditions: 18 h
How it was run: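 MRSA human isolate at 10^6 CFU/ml on Mueller-Hinton agar containing compound at 100, 10 or 1 µg/ml, grown 18 h at 37 °C. IC is the lowest tested level that inhibited growth, binned as ≤100, ≤10 or ≤1 µg/ml.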

[8] = test system: Staphylococcus aureus (209-P); assay: Antibacterial activity (IC), agar as in Example 8 (Example 15, Table 48); conditions: 18 h
How it was run: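 Samples in DMSO, diluted with sterile water, incorporated into Mueller-Hinton agar at 1, 10 and 100 µg/ml final. Bacteria seeded at 10^6 CFU/ml and grown 18 h at 37°C. Inhibition read as turbidity; values reported as IC ranges rather than exact MICs.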

[9] = test system: Bordetella bronchiseptica (SM2-4); assay: Antibacterial activity (IC), agar as in Example 8 (Example 18, Table 51); conditions: 18 h
Method: as §2, §3, §4
(§6) In a manner similar to that described in Example 8, antibacterial activity of the invention compound was determined. The bacterium used for the test was Bordetella bronchiseptica (S1) and Bordetella bronchiseptica (SM2-4).

[10] = test system: Bordetella bronchiseptica (S1); assay: as above; conditions: 18 h
Method: as §2, §3, §4, §6

[11] = test system: Streptococcus aureus (TI-1); assay: Antibacterial activity (IC), agar as in Example 8 (Example 16, Table 49); conditions: 18 h
How it was run: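 Compound at final 100, 10 or 1 µg/ml in Mueller-Hinton agar, inoculated with […] aureus (TI-1) at 10^6 CFU/ml and cultured 37°C for 18 h. Inhibition read from medium turbidity; IC given as 100-10, 10-1 or ≤1 µg/ml ranges from 2-fold dilution.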

[12] = Enterococcus Seriolicida KG86050
[13] = Enterococcus Seriolicida MS89060
[14] = Enterococcus Seriolicida MS89064
[15] = Enterococcus Seriolicida MS89066
[16] = Enterococcus Seriolicida MS89068
[17] = Enterococcus Seriolicida SE94-001
[18] = Enterococcus Seriolicida SE94-002
[19] = Enterococcus Seriolicida SE94-003
[20] = Enterococcus Seriolicida SE94-004
[21] = Enterococcus Seriolicida SE94-005

Row | Compound | IC (Enterococcus from fish; Enterococcus Seriolicida HI) | IC (Enterococcus from fish; [12]) | IC (Enterococcus from fish; [13]) | IC (Enterococcus from fish; [14]) | IC (Enterococcus from fish; [15]) | IC (Enterococcus from fish; [16]) | IC (Enterococcus from fish; [17]) | IC (Enterococcus from fish; [19]) | IC (Enterococcus from fish; [20]) | IC (Enterococcus from fish; [21]) | MIC [1] [µg/mL] | MIC ([2]; MRSA strain 891179, 37°C) [µg/mL] | MIC ([2]; MRSA strain 891185, 37°C) [µg/mL] | MIC ([2]; MRSA strain 891187, 37°C) [µg/mL] | MIC ([2]; MRSA strain 891192, 37°C) [µg/mL] | MIC ([2]; MRSA strain 900048, 37°C) [µg/mL] | MIC ([2]; MRSA strain 900056, 37°C) [µg/mL] | MIC [3] [µg/mL] | MIC [4] [µg/mL] | MIC [5] [µg/mL] | also measured
1 | 4-[2-(2-chloro-4-trifluoromethylphenoxy)-4-methylphenoxy]-2-(3,4-dichlorophenyl)-3-oxopentanonitrile and 4-[2-(2-chloro-4-trifluoromethylphenoxy)-5-methylphenoxy]-2-(3,4-dichlorophenyl)-3-oxopentanonitrile [Compound No. 308] | ≤ 1 µg/mL | ≤ 1 µg/mL | ≤ 1 µg/mL | ≤ 1 µg/mL | ≤ 1 µg/mL | ≤ 1 µg/mL | ≤ 1 µg/mL | ≤ 1 µg/mL | ≤ 1 µg/mL | ≤ 1 µg/mL |  |  |  |  |  |  |  |  |  |  | IC [1]: 308 (≤100) (MIC-equivalent values obtained at the succesive 2-fold dilution of the sample are 100-10 µg/ml); IC ([2]; MRSA strain 891179, 37°C): ≤ 1 µg/mL; IC ([2]; MRSA strain 891185, 37°C): ≤ 1 µg/mL; IC ([2]; MRSA strain 891187, 37°C): ≤ 1 µg/mL; IC ([2]; MRSA strain 891192, 37°C): ≤ 1 µg/mL; IC ([2]; MRSA strain 900048, 37°C): ≤ 1 µg/mL; IC ([2]; MRSA strain 900056, 37°C): ≤ 1 µg/mL; IC [3]: 308 (≤10) (10-1 µg/ml); IC (Enterococcus from fish; [18]): ≤ 1 µg/mL; IC (Pasteurella from fish; Pasteurella piscicida KP94-02): ≤; IC (Pasteurella from fish; Pasteurella piscicida KP94-04): ≤; IC (Pasteurella from fish; Pasteurella piscicida KP94-05): ≤; IC (Pasteurella from fish; Pasteurella piscicida KP94-06): ≤; IC [4]: 308 (≤1) (not more than 1 µg/ml); IC [5]: 308 (≤1) (not more than 1 µg/ml)
2 | Cc1cc(Oc2ccc(C(F)(F)F)cc2Cl)cc(OC(C)C(=O)C(C#N)c2ccc(Cl)c(Cl)c2)c1 (centres unmarked) [Compound No. 112, 4-[3-(2-chloro-4-trifluoromethylphenoxy)-5-methylphenoxy]-2-(3,4-dichlorophenyl)-3-oxopentanonitrile] | ≤10 (10-1 µg/ml) | ≤10 (10-1 µg/ml) | ≤10 (10-1 µg/ml) | ≤10 (10-1 µg/ml) | ≤10 (10-1 µg/ml) | ≤10 (10-1 µg/ml) | ≤10 (10-1 µg/ml) | ≤10 (10-1 µg/ml) | ≤10 (10-1 µg/ml) | ≤10 (10-1 µg/ml) |  |  |  |  |  |  |  |  |  |  | MIC [6]: ≤ 1 µg/mL; MIC ([7]; MRSA strain 891179): ≤ 1 µg/mL; MIC ([7]; MRSA strain 891185): ≤ 1 µg/mL; MIC ([7]; MRSA strain 891187): ≤ 1 µg/mL; MIC ([7]; MRSA strain 891192): ≤ 1 µg/mL; MIC ([7]; MRSA strain 900048): ≤ 1 µg/mL; MIC ([7]; MRSA strain 900056): ≤ 1 µg/mL; MIC [8]: ≤ 1 µg/mL; MIC [9]: 10 to 100 µg/mL (≈ 18.4 to 184 µM); MIC [10]: 10 to 100 µg/mL (≈ 18.4 to 184 µM); MIC (Enterococcus from fish; [18]): 1 to 10 µg/mL (≈ 1.84 to 18.4 µM); MIC (Pasteurella from fish; Pasteurella piscicida KP94-02): 1 to 10 µg/mL (≈ 1.84 to 18.4 µM); MIC [11]: ≤ 1 µg/mL
3 | Cc1cc(OC(C)C(=O)C(C#N)c2ccc(Cl)c(Cl)c2)ccc1Oc1ccc(C(F)(F)F)cc1Cl (centres unmarked) [compound 44] |  |  |  |  |  |  |  |  |  |  | 10 to 100 (≈ 18.4 to 184 µM) | ≤ 1 | ≤ 1 | ≤ 1 | ≤ 1 | ≤ 1 | ≤ 1 | 1 to 10 (≈ 1.84 to 18.4 µM) | ≤ 1 | ≤ 1 | 
4 | Cc1cc(OC(C)C(=O)C(C#N)c2cccc(Br)c2)ccc1Oc1ccc(C(F)(F)F)cc1Cl (centres unmarked) [compound 45] |  |  |  |  |  |  |  |  |  |  | 10 to 100 (≈ 18.1 to 181 µM) | 1 to 10 (≈ 1.81 to 18.1 µM) | 1 to 10 (≈ 1.81 to 18.1 µM) | 1 to 10 (≈ 1.81 to 18.1 µM) | 1 to 10 (≈ 1.81 to 18.1 µM) | 1 to 10 (≈ 1.81 to 18.1 µM) | 1 to 10 (≈ 1.81 to 18.1 µM) | 1 to 10 (≈ 1.81 to 18.1 µM) | 1 to 10 (≈ 1.81 to 18.1 µM) | ≤ 1 | 
